This is an account of results in article PMC9312958, “A Novel and Selective Dopamine Transporter Inhibitor, (S)-MK-26, Promotes Hippocampal Synaptic Plasticity and Restores Effort-Related Motivational Dysfunctions” (Biomolecules, 2022).

The subject of one experiment is DAT. On the set-up: method as in PMID 16885432. Particulars: read-out: IC50, DAT-inhibiting power; cited from earlier work.
The target in the next experiment is T1, hDAT (Homo sapiens, UniProt Q01959).
T1 construct: expressed in transfected cells
T1 sequence (Q01959 whole entry): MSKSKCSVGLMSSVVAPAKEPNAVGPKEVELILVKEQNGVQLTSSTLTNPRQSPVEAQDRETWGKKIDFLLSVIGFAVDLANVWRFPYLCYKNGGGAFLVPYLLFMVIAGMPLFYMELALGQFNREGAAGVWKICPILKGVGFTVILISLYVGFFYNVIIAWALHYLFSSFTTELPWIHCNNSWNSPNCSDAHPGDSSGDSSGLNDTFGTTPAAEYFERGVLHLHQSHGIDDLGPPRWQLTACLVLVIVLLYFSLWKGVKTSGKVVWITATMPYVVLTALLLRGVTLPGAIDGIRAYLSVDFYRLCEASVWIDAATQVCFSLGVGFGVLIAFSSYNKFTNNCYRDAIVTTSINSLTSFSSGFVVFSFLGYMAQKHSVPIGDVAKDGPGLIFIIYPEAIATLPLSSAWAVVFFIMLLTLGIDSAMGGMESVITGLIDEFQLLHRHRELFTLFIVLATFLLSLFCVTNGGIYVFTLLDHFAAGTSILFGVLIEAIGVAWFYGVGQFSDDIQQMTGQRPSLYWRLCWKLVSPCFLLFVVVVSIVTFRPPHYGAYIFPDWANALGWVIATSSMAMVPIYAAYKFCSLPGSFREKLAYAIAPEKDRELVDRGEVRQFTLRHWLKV
The experiment can be described thus: Uptake inhibition assay in HEK293 cells expressing hDAT. The experiment is classed as cell-based. As to the method: (§1) Human embryonic kidney 293 cells (HEK293 cells) were cultivated in Dulbecco’s Modified Eagle Medium (DMEM), containing 10% heat-inactivated fetal calf serum (FCS; 100 mL/L), streptomycin (100 μg/100 mL) and penicillin ([…]). Geneticin (50 μg/mL) was added to select cells stably expressing the human isoforms of dopamine, norepinephrine and serotonin transporter (hDAT, hNET, and hSERT, respectively) as described earlier. Cell lines were maintained in culture in humidified atmosphere (37 °C, 5% CO2), and passaged when reached 80–90% confluency. Cells expressing the desired transporter were seeded the day before the experiment (40,000 cells per well) or two days before the experiments (20,000 cells per well) onto poly-D-lysine (PDL)-coated 96-well plates.
(§2) Uptake inhibition experiments were carried out as reported previously. Ninety-six-well plates containing hDAT-, hNET- or hSERT-expressing cells were washed with Krebs-HEPES buffer (KHB; 25 mM HEPES, 120 mM NaCl, 5 mM KCl, 1.2 mM CaCl2, and 1.2 mM MgSO4 and 5 mM D-glucose, pH = 7.3). Cells were then preincubated with increasing concentrations of the compound diluted in KHB for 6 min. Following the pre-incubation of the cells with the compound, the tritiated substrate (hDAT: 0.15 μM [^3H]DA; hNET: 0.05 μM [^3H]MPP^+; hSERT: 0.1 μM [^3H]5-HT) was added to the wells. The uptake was terminated by removal of tritiated substrate and by washing the cells with ice-cold KHB after 1 min (for hDAT and hSERT) or 3 min (for hNET). Thereafter, 200 μL of Ultima Gold^TM XR scintillation cocktail (PerkinElmer, MA, USA) was added, the plates were shaken and the radioactivity accumulated into the cells determined in a Wal-lac 1450 MicroBeta TriLux Liquid Scintillation Counter & Lumi (GMI, Ramsey, MN, USA). Non- specific tritiated substrate uptake was measured in the presence of 100 μM cocaine (for hDAT and hNET) or 10 μM paroxetine (for hSERT), and subtracted from the data. Uptake in the presence of test drugs was normalized to the uptake in the presence of the vehicle.

A further experiment has as its target T2, hNET (Homo sapiens, UniProt P23975).
T2 construct: expressed in transfected cells
The experiment can be described thus: Uptake inhibition assay in HEK293 cells expressing hNET. The experiment is classed as cell-based. On the procedure:
as §1, §2

The target of the next experiment is T3, hSERT (Homo sapiens, UniProt P31645).
T3 construct: expressed in transfected cells
T3 sequence (P31645 whole entry): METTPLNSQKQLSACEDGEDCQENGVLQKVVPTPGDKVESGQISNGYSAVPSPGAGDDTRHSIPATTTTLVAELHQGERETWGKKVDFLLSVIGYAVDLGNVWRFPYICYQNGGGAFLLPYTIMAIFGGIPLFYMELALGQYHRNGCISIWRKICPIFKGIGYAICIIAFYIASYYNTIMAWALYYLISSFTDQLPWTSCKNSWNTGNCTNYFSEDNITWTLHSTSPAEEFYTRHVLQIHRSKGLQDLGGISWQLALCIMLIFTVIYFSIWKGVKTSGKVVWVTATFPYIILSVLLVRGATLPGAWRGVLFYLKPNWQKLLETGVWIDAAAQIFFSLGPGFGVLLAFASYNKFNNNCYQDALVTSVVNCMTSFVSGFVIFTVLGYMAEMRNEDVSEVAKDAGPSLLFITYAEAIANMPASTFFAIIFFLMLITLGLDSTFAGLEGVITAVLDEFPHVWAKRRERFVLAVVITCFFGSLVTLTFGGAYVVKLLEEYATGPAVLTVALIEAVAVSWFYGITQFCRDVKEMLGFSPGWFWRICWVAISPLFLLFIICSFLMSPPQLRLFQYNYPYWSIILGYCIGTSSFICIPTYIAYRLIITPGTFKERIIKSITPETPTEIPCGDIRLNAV
The experiment can be described thus: Uptake inhibition assay in HEK293 cells expressing hSERT. The class given is cell-based. As to the method: as §1
Uptake inhibition experiments were carried out as reported previously. […] Thereafter, 200 μL of Ultima Gold^TM XR scintillation cocktail (PerkinElmer, MA, USA) was added, the plates were shaken and the radioactivity accumulated into the cells determined in a Wal-lac 1450 MicroBeta TriLux Liquid Scintillation Counter & Lumi (GMI, Ramsey, MN, USA). Non- specific tritiated substrate uptake was measured in the presence of 100 μM cocaine (for hDAT and hNET) or 10 μM paroxetine (for hSERT), and subtracted from the data. […]

The subject of experiment [1] is adult male Sprague Dawley rats. The experiment can be described thus: FR5/chow feeding choice task. The experiment is classed as in vivo, rat. The note with it: 1.0 mg/kg TBZ plus vehicle vs vehicle plus vehicle. On the procedure:
Pharmacological agents: (S)-MK-26 was obtained from the Lubec Laboratory (University of Vienna, Austria) and dissolved in dimethyl sulfoxide (DMSO) (10%), Tween 80 (15%), and 0.9% saline (75%). The DMSO/Tween 80/saline mixture was administered as the vehicle control. The dose range was selected as 3.75–45.0 mg/kg based on its DAT affinity and pilot studies. It was administered 30 min before testing. TBZ (9,10-dimethoxy3-(2-methylpropyl)-1,3,4,6,7, 11b hexahydrobenzo[a]quinolizin2-one) was obtained from Tocris Bioscience (Ellisville, MO) and was dissolved in DMSO (20%) and 0.9% saline (80%) and was titrated with 1.0 N HCl until the drug was dissolved at a pH of 4.0–4.5. The DMSO/saline solution with equal amounts of HCl was administered as the vehicle control. The selected dose was 1.0mg/kg based on the previous research from our laboratory. It was administered 120 min prior to testing.
FR5/chow feeding choice task: A total of 8 adult male Sprague Dawley rats (Envigo Sprague Dawley, Indianapolis, IN, USA; weights 275–299 g upon arrival) were pair-housed in a colony maintained at 23 °C, with a 12 h light/dark cycle (lights on 07:00). Rats were food deprived to 85% of their free-feeding body weight with modest growth throughout the experiment and water was available ad libitum in their home cages. All the animal protocols were approved by the University of Connecticut Institutional Animal Care and Use Committee, and the experiments were completed according to National Institutes of Health guidelines.
Behavioral sessions were conducted in operant chambers (28 × 23 × 23 cm^3; Med Associates, Fairfax, VT, USA) with 30 min sessions 5 days/week. Rats were initially trained to lever press on magazine training for 3 days, followed by an FR1 schedule for 3 days (high-carbohydrate 45-mg pellets, Bio-Serv, Frenchtown, NJ, USA), and then moved to the FR5 schedule. After 5 weeks of training on the FR5 schedule, lab chow was introduced as the concurrently available choice food (Laboratory Diet, 5P00 Prolab RMH 3000, Purina Mills, St. Louis, MO, USA; typically 15–20 g). At the end of each session, rats were immediately removed from the chambers. The number of lever pressing was recorded and the amount of consumed chow was calculated by weighing the remaining food, including spillage. Rats were trained on the FR5/chow feeding choice task for 5 weeks, after which drug testing began.
To test the effects of (S)-MK-26 on FR5/Chow feeding choice task, trained rats were administered either with TBZ (1.0 mg/kg) or vehicle 120 min before testing, and (S)-MK-26 also with doses of 15.0, 30.0, 45.0 mg/kg or vehicle 30 min before testing, via intraperitoneal (IP) injections on drug testing days. A repeated-measures design was utilized where each rat received each drug treatment in a randomly varied order, once per week. The following five treatment combinations were given: TBZ vehicle + (S)-MK-26 vehicle; 1.0 mg/kg TBZ + (S)-MK-26 vehicle; 1.0 mg/kg TBZ + 15.0 mg/kg (S)-MK-26; 1.0 mg/kg TBZ + 30.0 mg/kg (S)-MK-26; 1.0 mg/kg TBZ + 45.0 mg/kg (S)-MK-26. Next, to see if the effects of lower doses, the following four treatment combinations were given in a repeated measure design: TBZ vehicle + (S)-MK-26 vehicle; 1.0 mg/kg TBZ + (S)-MK-26 vehicle; 1.0 mg/kg TBZ + 3.75 mg/kg (S)-MK-26; 1.0 mg/kg TBZ + 7.5 mg/kg (S)-MK-26.

T2 sequence (P23975 whole entry): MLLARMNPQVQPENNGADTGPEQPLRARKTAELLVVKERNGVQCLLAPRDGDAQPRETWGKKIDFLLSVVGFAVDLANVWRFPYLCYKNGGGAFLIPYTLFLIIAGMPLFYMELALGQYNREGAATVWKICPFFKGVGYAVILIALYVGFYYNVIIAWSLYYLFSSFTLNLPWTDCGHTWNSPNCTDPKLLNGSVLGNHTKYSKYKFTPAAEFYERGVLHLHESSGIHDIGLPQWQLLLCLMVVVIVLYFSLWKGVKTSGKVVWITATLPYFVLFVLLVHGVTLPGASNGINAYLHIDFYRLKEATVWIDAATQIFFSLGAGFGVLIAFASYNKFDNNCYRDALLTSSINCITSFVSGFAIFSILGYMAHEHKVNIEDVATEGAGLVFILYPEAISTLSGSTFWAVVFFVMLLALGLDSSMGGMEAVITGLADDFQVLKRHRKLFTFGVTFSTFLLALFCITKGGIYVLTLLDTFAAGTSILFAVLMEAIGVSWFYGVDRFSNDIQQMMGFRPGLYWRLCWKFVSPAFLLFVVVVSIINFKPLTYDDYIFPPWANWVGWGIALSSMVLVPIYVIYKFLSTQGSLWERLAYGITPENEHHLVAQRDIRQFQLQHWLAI

In the case of `NC(=O)C[S+]([O-])C(c1ccccc1)c1ccccc1` (racemic) [modafinil], the IC50 with DAT is […]. Regarding `[O-][S@+](Cc1cncs1)C(c1cccc(Cl)c1)c1cccc(Cl)c1` [(R)-MK-26, (R)-5-(((bis(3-chlorophenyl)methyl)sulphinyl)methyl)thiazole], the IC50 is 36.3 µM against hDAT, 2160 µM at hNET and over 1000 µM at hSERT. At hNET, `NC(=O)C[S@@+]([O-])C(c1ccccc1)c1ccccc1` [(R)-Modafinil, reference compound] yielded an IC50 of 127 µM. For `COc1cc2c(cc1OC)C1CC(=O)C(CC(C)C)CN1CC2` (stereo not shown) [TBZ, 9,10-dimethoxy3-(2-methylpropyl)-1,3,4,6,7, 11b hexahydrobenzo[a]quinolizin2-one, reference compound], in experiment [1], the “effect on chow intake” value is on record as “increasing chow intake” and the “effect on lever pressing” value was “decreasing lever pressing”.

What is called IC50 is the concentration at which inhibition is half-maximal.
